{"source": "patent US20150031761A1", "about": "“USE OF 5-AMINOLEVULINIC ACID AND DERIVATIVES IN A SOLID FORM FOR PHOTODYNAMIC TREATMENT AND DIAGNOSIS” (Photocure ASA, priority 2007, published 2015)", "experiment": "Stress-study at 80° C. of HAL HCl with excipients, impurities by HPLC", "assay_type": "physicochemical", "parameters": "key to level of impurity at relative retention time 0.8: **: An empty entry indicates no detectable levels", "details": "20 hours, relative to a pyrazine standard", "protocol": "In order to get an indication of the stability of HAL in the presence of various excipients, a stress-study at 80° C. was performed. 100 mg HAL HCl+300 mg excipient (Poloxamer 188, Gelucire 44/14, Gelucire mixture (44/14:50/02=[…] w/w) and Miglyol 812 N) was mixed and the result after 20 hours was analysed by HPLC. The level of each impurity was calculated relative to a pyrazine standard.", "data": [{"smiles": "CCCCCCOC(=O)CCC(=O)CN.Cl", "note": "[HAL- HCl, Hexyl 5-aminolevulinate hydrochloride]", "values": [{"measurement": "level of impurity Pyrazine", "value": 1.77, "unit": "%"}, {"measurement": "level of impurity at relative retention time 0.8", "value": "**"}, {"measurement": "level of impurity at relative retention time 0.88", "value": 0.46, "unit": "%"}, {"measurement": "level of impurity at relative retention time 1.37", "value": 0.03, "unit": "%"}, {"measurement": "level of impurity at relative retention time 1.91", "value": 0.35, "unit": "%"}, {"measurement": "level of impurity at relative retention time 2.06", "value": 0.16, "unit": "%"}]}]}
